Assay results: patent US12637413B2, “Fatty acid amide hydrolase (FAAH) cleavable prodrugs of thyromimetics and combination with peripherally restricted FAAH inhibitors” (Autobahn Therapeutics, Inc., priority 2021, dated 2026)

Tests used:
recombinant human FAAH = target: T1, recombinant human FAAH (Homo sapiens, UniProt O00519); assay: FAAH inhibition, 30 min preincubation, AMC substrate; type: biochemical; conditions: 30 min preincubation with recombinant human FAAH and AMC; read-out: Apparent IC50s
T1 sequence (O00519 1-579): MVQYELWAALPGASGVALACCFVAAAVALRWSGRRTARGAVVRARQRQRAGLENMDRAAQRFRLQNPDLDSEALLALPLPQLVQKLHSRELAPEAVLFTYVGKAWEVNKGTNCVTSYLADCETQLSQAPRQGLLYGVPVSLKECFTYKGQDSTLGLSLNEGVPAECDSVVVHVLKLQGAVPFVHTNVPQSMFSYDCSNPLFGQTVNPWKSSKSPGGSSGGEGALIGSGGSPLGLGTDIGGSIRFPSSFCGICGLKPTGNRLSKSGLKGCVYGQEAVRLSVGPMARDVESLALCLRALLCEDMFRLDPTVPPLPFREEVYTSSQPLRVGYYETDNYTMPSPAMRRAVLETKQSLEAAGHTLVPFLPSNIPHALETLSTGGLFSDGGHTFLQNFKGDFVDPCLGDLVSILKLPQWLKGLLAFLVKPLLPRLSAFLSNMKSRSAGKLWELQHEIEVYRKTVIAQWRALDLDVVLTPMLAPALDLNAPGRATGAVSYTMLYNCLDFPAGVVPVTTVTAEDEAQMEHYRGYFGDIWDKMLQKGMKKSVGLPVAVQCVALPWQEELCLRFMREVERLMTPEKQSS

FAAH = target: T2, FAAH (Mus musculus, UniProt O08914); assay: tissue distribution after co-dosing prodrug ABX-002 with or without PFI or GFI; type: in vivo, mice; conditions: for Distribution: peripheral or global FAAH inhibitor
T2 construct: from tissue; host or cells: living mice; plasma, liver and brain sampled
T2 sequence (O08914 1-579): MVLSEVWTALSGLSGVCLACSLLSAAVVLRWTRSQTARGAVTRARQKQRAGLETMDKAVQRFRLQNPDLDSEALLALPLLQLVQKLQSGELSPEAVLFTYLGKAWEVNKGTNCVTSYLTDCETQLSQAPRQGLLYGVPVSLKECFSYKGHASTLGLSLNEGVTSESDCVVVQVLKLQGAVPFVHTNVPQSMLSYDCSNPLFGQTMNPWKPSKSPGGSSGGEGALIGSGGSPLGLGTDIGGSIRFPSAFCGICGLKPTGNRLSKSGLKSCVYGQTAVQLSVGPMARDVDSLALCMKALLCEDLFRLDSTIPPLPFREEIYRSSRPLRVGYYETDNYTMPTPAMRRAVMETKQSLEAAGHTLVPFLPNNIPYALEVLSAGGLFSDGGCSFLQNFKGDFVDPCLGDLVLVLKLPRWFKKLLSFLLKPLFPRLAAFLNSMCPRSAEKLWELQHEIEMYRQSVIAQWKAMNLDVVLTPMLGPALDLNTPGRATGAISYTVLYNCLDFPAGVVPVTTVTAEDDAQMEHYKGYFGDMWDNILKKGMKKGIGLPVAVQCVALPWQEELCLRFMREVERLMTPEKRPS
Description: The ability of globally-penetrant and peripherally-restricted FAAH inhibitors (GFI & PFI, respectively) to alter distribution of ABX-002 and ABX-002A was assessed.
Table 5 depicts the inhibition of active metabolite (LL-650177 or PF-044578454) in AUC in the plasma, liver, and brain after prodrug (ABX-002) co-dosing. Tissue distribution studies in mice confirm global & peripheral inhibition of FAAH.

[1] = target: T3, recombinant human FAAH (rhFAAH) (Homo sapiens, UniProt O00519); assay: FAAH substrate evaluation (acid metabolite formation); type: biochemical; conditions: observed rate constant for acid metabolite formation; 0.5 ng/μL rhFAAH, 1 μM test compound, room temperature, 0-60 minutes
T3 construct: purchased Cayman Chemical (Ann Arbor, MI, USA)
T3 sequence (O00519 1-579): T1 sequence (O00519 1-579)
Description: Purified recombinant human FAAH (rhFAAH) was purchased from Cayman Chemical (Ann Arbor, MI, USA). The total volume for each incubation was 400 μL containing a final 0.5 ng/μL rhFAAH, 1 μM test compound, 1.25% ethanol or 1 μM PF-3845 (FAAH inhibitor), and 0.1% bovine serum albumin in Tris-EDTA buffer at pH 8.0). The positive control was LL-341001. The incubation was conducted at the room temperature. At 0, 5, 15, 30 and 60 minutes, an aliquot of 30 μL reaction mixtures was removed and mixed with 300 μL acetonitrile containing 5 ng/mL terfenadine and 10 ng/mL tolbutamide as internal standards to quench the reaction. The resulting mixture was centrifuged at 4000 rpm, 4° C. for 15 minutes, and 100 μL supernatant was ready for LC-MS/MS analysis to measure the formation of acid metabolite.
Acquity Ultra Performance LC system from Waters was used for sample analysis. The chromatography was performed on a reverse phase Kinetex 2.6 μm C18 column, 2.1×30 mm, 100 Å. The mobile phase A comprised of 0.1% formic acid in water and mobile phase B comprised of 0.1% formic acid in acetonitrile with a 2-min run time at the flow rate of 0.8 mL/min for the acid metabolite from positive control or a 1.5 min run time at the flow rate of 0.9 mL/min for the acid metabolite of test compounds. The mass spectrometer (API-5500 and API Q Trap 4000 Applied Biosystems/MDS SCIEX Instruments, Framingham, MA, USA) was operated under ESI positive or negative ion MRM mode.
The formation of acid metabolite was monitored and quantified using one calibration point of 1 μM. The observed rate constant (ke) for the acid metabolite formation was calculated by plotting the metabolite concentration versus time of incubation with the slope being ke and is shown in Table 1.

ke [1] | Structure (SMILES) | other results
– | O=C(Nc1cccnn1)N1CCC(=Cc2cccc(Oc3ccc(C(F)(F)F)cn3)c2)CC1 [PF-04457845] | IC50 (recombinant human FAAH): 3 nM; inhibition of active metabolite AUC, Brain (FAAH; ABX-002A AUC after ABX-002 co-dosing, mice, brain): 83%; inhibition of active metabolite AUC, Liver (FAAH; ABX-002A AUC after ABX-002 co-dosing, mice, liver): 94%; inhibition of active metabolite AUC, Plasma (FAAH; ABX-002A AUC after ABX-002 co-dosing, mice, plasma): 94%; Distribution (FAAH): Global
A (ke is more than or equal to 0.1) | CC(C)c1cc(Cc2c(Cl)cc(OCC(=O)NC3COC3)cc2Cl)ccc1O [Compound 18] | –
A (ke is more than or equal to 0.1) | CC(C)c1cc(Cc2c(Cl)cc(OCC(=O)NCc3ccccc3)cc2Cl)ccc1O [Compound 22] | –
– | NC(=O)c1cccc(-c2cc(OC(=O)NC3CCCCC3)ccc2O)c1 [URB937] | IC50 (recombinant human FAAH): 69 nM; Distribution (FAAH): Peripheral
B (ke is less than 0.1 and more than 0) | CC(C)c1cc(Cc2c(Cl)cc(OCC(=O)NC[C@H](C)O)cc2Cl)ccc1O [Compound 8] | –
A (ke is more than or equal to 0.1) | CC(C)c1cc(Cc2c(Cl)cc(OCC(=O)N[C@H](C)CO)cc2Cl)ccc1O [Compound 9] | –
A (ke is more than or equal to 0.1) | CCNC(=O)COc1cc(Cl)c(Cc2ccc(O)c(C(C)C)c2)c(Cl)c1 [Compound 2] | –
A (ke is more than or equal to 0.1) | CC(C)c1cc(Cc2c(Cl)cc(OCC(=O)Nc3cccc(O)c3)cc2Cl)ccc1O [Compound 21] | –
B (ke is less than 0.1 and more than 0) | CC(C)c1cc(Cc2c(Cl)cc(OCC(=O)N(C)CCO)cc2Cl)ccc1O [Compound 123, 2-(3,5-dichloro-4-(4-hydroxy-3-isopropylbenzyl)phenoxy)-N-(2-hydroxyethyl)-N-methylacetamide] | –
A (ke is more than or equal to 0.1) | CNC(=O)COc1cc(Cl)c(Cc2ccc(O)c(C(C)C)c2F)c(Cl)c1 [Compound 31] | –
B (ke is less than 0.1 and more than 0) | CC(C)c1cc(Cc2c(Cl)cc(OCC(=O)N(C)CC(F)(F)F)cc2Cl)ccc1O [Compound 131, 2-(3,5-dichloro-4-(4-hydroxy-3-isopropylbenzyl)phenoxy)-N-methyl-N-(2,2,2-trifluoroethyl)acetamide] | –
A (ke is more than or equal to 0.1) | CC(C)c1c(O)ccc(Cc2c(Cl)cc(OCC(=O)NCCF)cc2Cl)c1F [Compound 36] | –
B (ke is less than 0.1 and more than 0) | CNC(=O)COc1cc(Cl)c(Cc2ccc(O)c(C(C)C)c2F)c(Cl)c1F [Compound 39] | –
B (ke is less than 0.1 and more than 0) | CC(C)c1cc(Cc2c(Cl)cc(OCC(=O)N3CCC3)cc2Cl)ccc1O [Compound 118, 1-(azetidin-1-yl)-2-(3,5-dichloro-4-(4-hydroxy-3-isopropylbenzyl)phenoxy)ethan-1-one] | –
A (ke is more than or equal to 0.1) | CC(C)c1cc(Cc2c(Cl)cc(OCC(=O)NCC(F)F)cc2Cl)ccc1O [Compound 15] | –
B (ke is less than 0.1 and more than 0) | CC(C)c1cc(Cc2c(Cl)cc(OCC(=O)N(C)C)cc2Cl)ccc1O [Compound 19] | –
B (ke is less than 0.1 and more than 0) | CC(C)c1cc(Cc2c(Cl)cc(OCC(=O)NCCc3ccc(O)c(O)c3)cc2Cl)ccc1O [Compound 24] | –
A (ke is more than or equal to 0.1) | CON(C)C(=O)COc1cc(Cl)c(Cc2ccc(O)c(C(C)C)c2F)c(Cl)c1 [Compound 44] | –
C (ke is 0) | CC(C)CN(C)C(=O)COc1cc(Cl)c(Cc2ccc(O)c(C(C)C)c2)c(Cl)c1 [Compound 120, 2-(3,5-dichloro-4-(4-hydroxy-3-isopropylbenzyl)phenoxy)-N-isobutyl-N-methylacetamide] | –
